# Key:
# [1] = target: Epithelial discoidin domain-containing receptor 1 (Homo sapiens) (UniProt Q08345); test: Selectivity interaction (KinomeScan (DiscoverX)) EUB0001079a DDR1; conditions: at 1 µM
# [2] = target: T1, Receptor-interacting serine/threonine-protein kinase 1 (Homo sapiens) (UniProt Q13546); test: Selectivity interaction (KinomeScan (DiscoverX)) EUB0001079a RIPK1; conditions: at 1 µM
# T1 sequence (whole entry): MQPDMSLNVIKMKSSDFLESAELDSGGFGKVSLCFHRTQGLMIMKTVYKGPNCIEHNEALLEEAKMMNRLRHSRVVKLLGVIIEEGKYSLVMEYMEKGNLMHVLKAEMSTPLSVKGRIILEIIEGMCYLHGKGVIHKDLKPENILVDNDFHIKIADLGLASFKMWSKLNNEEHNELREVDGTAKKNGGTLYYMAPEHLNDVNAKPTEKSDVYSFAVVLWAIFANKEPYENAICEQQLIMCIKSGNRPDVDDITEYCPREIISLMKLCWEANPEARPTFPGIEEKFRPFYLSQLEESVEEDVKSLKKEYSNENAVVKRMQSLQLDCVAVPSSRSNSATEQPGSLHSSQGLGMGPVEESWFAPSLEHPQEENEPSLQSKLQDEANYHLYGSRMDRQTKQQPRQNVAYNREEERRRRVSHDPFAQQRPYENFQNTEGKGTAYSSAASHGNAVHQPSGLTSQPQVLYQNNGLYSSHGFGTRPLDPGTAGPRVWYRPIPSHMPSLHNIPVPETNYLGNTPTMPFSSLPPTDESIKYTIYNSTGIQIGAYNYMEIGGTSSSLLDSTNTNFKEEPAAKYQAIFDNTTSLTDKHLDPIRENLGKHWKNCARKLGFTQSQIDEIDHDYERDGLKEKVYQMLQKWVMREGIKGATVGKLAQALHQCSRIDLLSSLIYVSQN
# [3] = target: T2, Serine/threonine-protein kinase 36 (Homo sapiens) (UniProt Q9NRP7); conditions: at 10 µM
# T2 sequence (whole entry): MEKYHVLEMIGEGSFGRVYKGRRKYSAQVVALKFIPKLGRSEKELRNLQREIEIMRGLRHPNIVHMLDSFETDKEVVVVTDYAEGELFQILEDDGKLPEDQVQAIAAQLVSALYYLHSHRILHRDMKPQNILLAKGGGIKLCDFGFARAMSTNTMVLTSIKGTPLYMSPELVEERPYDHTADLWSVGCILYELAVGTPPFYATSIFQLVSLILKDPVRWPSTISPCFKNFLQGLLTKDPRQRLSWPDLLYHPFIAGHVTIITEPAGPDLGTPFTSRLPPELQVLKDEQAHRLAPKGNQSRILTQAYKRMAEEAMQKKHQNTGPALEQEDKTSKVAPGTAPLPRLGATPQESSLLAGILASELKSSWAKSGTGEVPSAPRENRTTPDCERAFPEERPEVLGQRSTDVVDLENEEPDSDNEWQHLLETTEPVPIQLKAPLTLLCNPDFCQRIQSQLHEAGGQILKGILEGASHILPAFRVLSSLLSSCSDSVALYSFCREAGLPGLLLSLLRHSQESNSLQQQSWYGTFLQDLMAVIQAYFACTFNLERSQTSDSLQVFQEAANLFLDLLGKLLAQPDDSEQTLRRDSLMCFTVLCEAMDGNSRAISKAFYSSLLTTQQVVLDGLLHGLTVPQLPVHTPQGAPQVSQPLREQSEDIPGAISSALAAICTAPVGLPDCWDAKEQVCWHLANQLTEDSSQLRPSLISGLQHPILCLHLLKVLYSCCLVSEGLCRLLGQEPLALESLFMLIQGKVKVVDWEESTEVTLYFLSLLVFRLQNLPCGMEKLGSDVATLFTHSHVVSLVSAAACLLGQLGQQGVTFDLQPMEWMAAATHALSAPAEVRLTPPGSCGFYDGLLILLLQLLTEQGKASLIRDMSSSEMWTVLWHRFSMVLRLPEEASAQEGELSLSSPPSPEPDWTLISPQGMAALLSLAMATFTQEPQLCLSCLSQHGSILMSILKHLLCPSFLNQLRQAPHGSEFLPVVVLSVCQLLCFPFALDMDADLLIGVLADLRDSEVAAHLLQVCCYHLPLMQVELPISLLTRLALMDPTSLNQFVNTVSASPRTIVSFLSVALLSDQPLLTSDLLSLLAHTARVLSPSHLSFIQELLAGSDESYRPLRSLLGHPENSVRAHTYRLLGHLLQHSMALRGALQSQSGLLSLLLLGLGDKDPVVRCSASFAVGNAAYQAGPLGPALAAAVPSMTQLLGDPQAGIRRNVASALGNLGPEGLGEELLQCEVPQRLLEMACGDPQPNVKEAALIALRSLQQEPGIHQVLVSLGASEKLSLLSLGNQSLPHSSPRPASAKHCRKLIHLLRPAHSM
# [4] = target: Tyrosine-protein kinase receptor UFO (Homo sapiens) (UniProt P30530); test: Selectivity interaction (KinomeScan (DiscoverX)) EUB0000045b AXL
# Tyrosine-protein kinase receptor UFO (Homo sapiens), sequence (P30530 whole entry): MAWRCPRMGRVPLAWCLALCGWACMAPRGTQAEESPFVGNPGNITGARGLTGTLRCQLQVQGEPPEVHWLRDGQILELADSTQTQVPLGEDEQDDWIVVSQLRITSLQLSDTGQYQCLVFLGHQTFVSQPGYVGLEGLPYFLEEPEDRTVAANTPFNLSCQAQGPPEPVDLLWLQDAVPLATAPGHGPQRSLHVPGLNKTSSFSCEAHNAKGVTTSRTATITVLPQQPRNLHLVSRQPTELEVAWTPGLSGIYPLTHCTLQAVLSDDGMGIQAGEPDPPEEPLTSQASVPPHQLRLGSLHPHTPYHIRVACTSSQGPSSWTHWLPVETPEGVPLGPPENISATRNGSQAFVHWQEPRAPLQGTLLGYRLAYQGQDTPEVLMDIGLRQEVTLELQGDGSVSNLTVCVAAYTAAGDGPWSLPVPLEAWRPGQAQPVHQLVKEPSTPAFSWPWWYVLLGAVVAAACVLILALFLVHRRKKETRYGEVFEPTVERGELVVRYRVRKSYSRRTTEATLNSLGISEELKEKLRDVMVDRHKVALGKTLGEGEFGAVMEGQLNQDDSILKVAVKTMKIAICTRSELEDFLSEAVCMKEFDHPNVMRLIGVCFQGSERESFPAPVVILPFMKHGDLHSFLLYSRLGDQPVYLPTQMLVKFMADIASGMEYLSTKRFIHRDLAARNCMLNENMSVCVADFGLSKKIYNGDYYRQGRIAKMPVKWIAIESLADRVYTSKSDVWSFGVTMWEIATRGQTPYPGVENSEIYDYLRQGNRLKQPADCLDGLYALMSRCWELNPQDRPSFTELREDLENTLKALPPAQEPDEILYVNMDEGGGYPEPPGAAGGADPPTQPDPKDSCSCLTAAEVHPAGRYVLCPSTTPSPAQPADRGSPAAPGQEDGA
# [5] = Selectivity interaction (KinomeScan (DiscoverX)) EUB0000045b CDPK1
# Epithelial discoidin domain-containing receptor 1 (Homo sapiens), sequence (Q08345 whole entry, the tested form may be a part): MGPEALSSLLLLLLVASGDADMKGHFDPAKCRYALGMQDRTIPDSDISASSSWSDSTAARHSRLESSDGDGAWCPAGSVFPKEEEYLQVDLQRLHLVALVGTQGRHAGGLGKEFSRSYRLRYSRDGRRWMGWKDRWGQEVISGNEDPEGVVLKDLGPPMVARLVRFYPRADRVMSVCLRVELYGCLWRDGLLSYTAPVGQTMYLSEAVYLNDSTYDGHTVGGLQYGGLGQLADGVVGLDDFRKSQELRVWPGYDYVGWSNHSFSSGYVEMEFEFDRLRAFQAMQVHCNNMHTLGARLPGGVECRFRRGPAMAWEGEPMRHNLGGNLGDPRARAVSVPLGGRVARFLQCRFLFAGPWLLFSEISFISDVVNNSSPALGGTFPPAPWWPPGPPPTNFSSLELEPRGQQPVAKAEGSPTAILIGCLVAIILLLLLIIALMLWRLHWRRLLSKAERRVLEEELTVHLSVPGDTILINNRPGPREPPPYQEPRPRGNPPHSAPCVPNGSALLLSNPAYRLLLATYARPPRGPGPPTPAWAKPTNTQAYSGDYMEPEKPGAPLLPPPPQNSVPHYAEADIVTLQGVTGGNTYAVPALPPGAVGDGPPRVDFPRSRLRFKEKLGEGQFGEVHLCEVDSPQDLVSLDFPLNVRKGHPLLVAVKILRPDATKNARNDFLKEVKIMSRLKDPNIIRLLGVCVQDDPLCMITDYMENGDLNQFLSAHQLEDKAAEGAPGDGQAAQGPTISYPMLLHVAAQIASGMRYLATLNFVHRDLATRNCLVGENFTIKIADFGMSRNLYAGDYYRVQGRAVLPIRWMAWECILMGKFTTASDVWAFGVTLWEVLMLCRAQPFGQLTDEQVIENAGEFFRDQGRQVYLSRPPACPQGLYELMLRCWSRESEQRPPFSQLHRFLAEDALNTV
structure (smiles),measurement,setting,value
Nc1cnc(N2CCc3cc(S(=O)(=O)Nc4c(F)cc(Cl)cc4F)cc(N4CCCC4=O)c32)nc1 [TP-020n],% of control,[1],100%
same,% of control,[2],92%
Cc1cc([C@@H](C)Nc2ccccc2C(=O)O)c2nc(N3CCOCC3)cc(=O)n2c1 [AZD-6482],% of control,[3],100%
C=CC(=O)Nc1cc(-n2c(=O)ccc3cnc4ccc(-c5ccc(NS(C)(=O)=O)cc5)cc4c32)ccc1C,% of control,[4]; at 1 µM,100%
same,% of control,[4]; at 10 µM,100%
same,% of control,[5]; at 1 µM,100%
same,% of control,[5]; at 10 µM,62%
